According to PMC8533149 (Biomolecules, 2021):

Columns and labels:
[1] = system: HIV-1 LTR-III G-quadruplex (FAM/TAMRA-labeled LTR-III); experiment: FRET melting assay, LTR-III G4; format: binding; settings: for LTR-III ΔTm: Table S1 primary screening, ligand:ODN 50:1, singlicate; for LTR-III (average): Table S12, average stabilization; for LTR III stabilization: Figure 7, stabilization group
Summary of the method: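 Melting is followed by FAM fluorescence (ex 495/em 520 nm) while heating at 1 °C/min from 30 to 95 °C. Labelled ODN at 0.5 μM, pre-annealed in 10 mM Li cacodylate, 100 mM KCl, pH 7.4, mixed with ligand at 50:1 (25 μM), or 20:1 and 2:1 for titration. ΔTm is relative to the 0.25% DMSO buffer control.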

MT4 cells = experiment: Cytotoxicity test; format: cell-based; settings: for CC50: Figure 7; for СС50 (MT4): Table S12, nine days
Experimental: Green monkey kidney (Vero, Beach, FL, USA) cell line was maintained in 2 × Eagle MEM (“Chumakov FSC R&D IBP RAS”, Russia) with 5% FBS with L-glutamine, penicillin and streptomycin. […] HIV-1 strain NL4-3 was obtained via cell transfection with pNL4-3 3 (ARP2006, NIBSC, Potters Bar, UK).
MT4 cell suspensions were added to the wells with compound dilutions and DMSO control (approx. 2 × 10^4 cells per well). […] All experimental procedures were performed in two replicates and were repeated two to four times. Mean and SD were calculated with OriginPro 8 (OriginLab, St. Louis, MO, USA).

COc1ccc(/C=C/C2=NC(=C\c3ccc(O)cc3)/C(=O)N2CCNC(C)=O)cc1 [ccE 4]
LTR-III ΔTm [1]: 2.8 °C | LTR-III (average) [1]: 2,8 °C | CC50 (MT4 cells): > 25 µM | СС50 (MT4) (MT4 cells): > 25 µM

COc1cc(O)ccc1/C=C1N=C(/C=C/N(C)C)N(C)C\1=O [N 1122]
LTR-III ΔTm [1]: 2.3 °C | LTR-III (average) [1]: 2,3 °C | CC50 (MT4 cells): > 25 µM | СС50 (MT4) (MT4 cells): > 25 µM

COc1cc(C=CC2=NC(=Cc3ccc(O)cc3)C(=O)N2C)cc(OC)c1O [N 906]
LTR III stabilization [1]: < 1 °C | LTR-III ΔTm [1]: 0.1 °C | LTR-III (average) [1]: 0,1 °C | CC50 (MT4 cells): 7 ± 3 µM | СС50 (MT4) (MT4 cells): 6.6 ± 3.1 µM

COc1ccc(C=C2N=C(CC(C)C)C(=O)N(OC)C2=O)cc1 [M 802]
LTR III stabilization [1]: < 1 °C | LTR-III ΔTm [1]: -2.3 °C | LTR-III (average) [1]: -2,3 °C | CC50 (MT4 cells): 7 ± 3 µM | СС50 (MT4) (MT4 cells): 6.6 ± 3.1 µM

COc1ccc(C=C2N=C(C)N(CC(N)=O)C2=O)cc1 [SA 120]
LTR III stabilization [1]: < 1 °C | LTR-III ΔTm [1]: -2.1 °C | LTR-III (average) [1]: -1,35 °C | CC50 (MT4 cells): > 25 µM | СС50 (MT4) (MT4 cells): > 25 µM

COc1ccc(OC)c(C=C2N=C(C)N(C)C2=O)c1 [N 840]
LTR III stabilization [1]: < 1 °C | LTR-III ΔTm [1]: -2.5 °C | LTR-III (average) [1]: -1,55 °C | CC50 (MT4 cells): > 25 µM | СС50 (MT4) (MT4 cells): > 25 µM

CN1C(=O)C(=Cc2cc(Cl)c(O)c(Cl)c2)N=C1C=Cc1ccncc1 [N 901]
LTR-III ΔTm [1]: 0.4 °C

CCOC(=O)/C=C/c1ccc(O[Si](c2ccccc2)(c2ccccc2)C(C)(C)C)cc1 [M 1352]
LTR-III ΔTm [1]: -0.5 °C

CSC(=CC1=NC(=Cc2ccc(O)cc2)C(=O)N1C)c1ccccc1 [SA 599.21]
LTR-III ΔTm [1]: -0.3 °C

CC1=NC(=Cc2ccc3[nH]c(C)c(C)c3c2)C(=O)N1C [N 792]
LTR-III ΔTm [1]: 0.2 °C

CC1=N/C(=C\c2ccccc2O[Si](c2ccccc2)(c2ccccc2)C(C)(C)C)C(=O)N1C [M 1586]
LTR-III ΔTm [1]: -0.3 °C

CN1C(=O)C(=Cc2ccc(N(C)C)cc2)N=C1C=Cc1cc(Br)c(O)c(Br)c1 [M 2368c]
LTR-III ΔTm [1]: 0 °C

CN1C(=O)C(=Cc2ccc(O)c(O)c2)N=C1C=Cc1ccccc1 [M 2499b]
LTR-III ΔTm [1]: 0.3 °C

CCCC1=NC(=Cc2ccc(O)cc2)C(=O)N1C [GA 05]
LTR-III ΔTm [1]: -0.5 °C

CCC1=NC(=Cc2c[nH]c3ccccc23)C(=O)N1C [SV 14]
LTR-III ΔTm [1]: 0 °C

CCN1C(=O)C(=CC=Cc2ccc(O)cc2)N=C1C [M 1379.2]
LTR-III ΔTm [1]: -0.2 °C

CN1C(=O)C(=Cc2ccc(O)cc2)N=C1CCCCNC(=O)OC(C)(C)C [Boc-AV-GFP]
LTR-III ΔTm [1]: 0.2 °C

COc1cc(O)ccc1C=C1N=C(C=C(C#N)c2ccccc2)N(C)C1=O [MID 151]
LTR-III ΔTm [1]: 0.2 °C

CC(C)OC(=O)c1noc(=O)c(O)c1-c1ccc(O)cc1 [AL 23]
LTR-III ΔTm [1]: 0 °C

CC(=O)Oc1ccc(C=C2N=C(C=C(OC(=O)c3ccc(C)cc3)c3ccc(C)cc3)N(C)C2=O)cc1 [M 202]
LTR-III ΔTm [1]: -0.6 °C

CC1=NC(=Cc2cc(Cl)c(O)c(Cl)c2)C(=O)N1C [N 892]
LTR-III ΔTm [1]: -1 °C

COc1cc(/C=C2N=C(/C=C/c3c(F)c(F)nc(F)c3F)N(C)C\2=O)cc(OC)c1O [N 980]
LTR-III ΔTm [1]: 1 °C

CCC1=NC(=Cc2cc(C(C)(C)C)c(O)c(C(C)(C)C)c2)C(=O)N1C [AL 135.2]
LTR-III ΔTm [1]: -1.3 °C

CC(=O)C1=N/C(=C\c2c[nH]c3ccccc23)C(=O)N1C [M 1975]
LTR-III ΔTm [1]: -0.6 °C
